Paper PMC11995724, “Antibiotic target discovery by integrated phenotypic and activity-based profiling of electrophilic fragments” (Cell chemical biology, 2025)

assay: in vitro; conditions: human, hek293t cells

Row | Compound | viability at 48 h, 25 µM
1 | C=CC(=O)N1CCC(C(=O)N2CCC(C(=O)NC3CC3)CC2)CC1 [2-D10, N-cyclopropyl-1-[1-(prop-2-enoyl)piperidine-4-carbonyl]piperidine-4-carboxamide] | 76.9%
2 | C=CC(=O)NCc1cnc2ccsc2c1 [2-D11, N-({thieno[3,2-b]pyridin-6-yl}methyl)prop-2-enamide] | 74.3%
3 | C=CC(=O)N1CCC(C(=O)N2CCC[C@H]2c2ncn[nH]2)CC1 [2-D12, 1-{4-[(2S)-2-(1H-1,2,4-triazol-5-yl)pyrrolidine-1-carbonyl]piperidin-1-yl}prop-2-en-1-one] | 81.3%
4 | C=CC(=O)N(Cc1cn(CC)nc1C)C1CC1 [2-D13, N-cyclopropyl-N-[(1-ethyl-3-methyl-1H-pyrazol-4-yl)methyl]prop-2-enamide] | 76.3%
5 | C=CC(=O)N1CCC(C(=O)NCC(C)(C)C2(O)CCCC2)CC1 [2-D14, N-[2-(1-hydroxycyclopentyl)-2-methylpropyl]-1-(prop-2-enoyl)piperidine-4-carboxamide] | 76.9%
6 | C=CC(=O)NC1(C(N)=O)Cc2ccccc2C1 [2-D15, 2-(prop-2-enamido)-2,3-dihydro-1H-indene-2-carboxamide] | 69.7%
7 | C=CC(=O)Nc1ccc(C(=O)N2CCC3(CC2)OCCCO3)cc1 [2-D16, N-(4-{1,5-dioxa-9-azaspiro[5.5]undecane-9-carbonyl}phenyl)prop-2-enamide] | 49.1%
8 | C=CC(=O)NC(CO)c1ccnn1C (centres unmarked) [2-D17, N-[2-hydroxy-1-(1-methyl-1H-pyrazol-5-yl)ethyl]prop-2-enamide] | 45.9%
9 | C=CC(=O)N1CCC(C(=O)NCC2([S+](C)[O-])CCC2)CC1 (centres unmarked) [2-D18, N-[(1-methanesulfinylcyclobutyl)methyl]-1-(prop-2-enoyl)piperidine-4-carboxamide] | 73.4%
10 | C=CC(=O)N(C)Cc1ncc(C(F)(F)F)n1C [2-D19, N-methyl-N-{[1-methyl-5-(trifluoromethyl)-1H-imidazol-2-yl]methyl}prop-2-enamide] | 70.6%
11 | C=CC(=O)NCCC(=O)N1CCCN(C(=O)c2ccccc2F)CC1 [2-D20, N-{3-[4-(2-fluorobenzoyl)-1,4-diazepan-1-yl]-3-oxopropyl}prop-2-enamide] | 93.7%
12 | C=CC(=O)NCc1ncccc1S(C)(=O)=O [2-D21, N-[(3-methanesulfonylpyridin-2-yl)methyl]prop-2-enamide] | 80%
13 | C=CC(=O)NCc1ccc(C(=O)N2CCCC2C(=O)N(C)C)cc1 (centres unmarked) [2-D22, N,N-dimethyl-1-{4-[(prop-2-enamido)methyl]benzoyl}pyrrolidine-2-carboxamide] | 71.2%
14 | C=CC(=O)NCC1CC(CC(=O)O)CO1 (centres unmarked) [2-E03, 2-{5-[(prop-2-enamido)methyl]oxolan-3-yl}acetic acid] | 182%
15 | C=CC(=O)NC1(c2ccc(C(F)(F)F)cc2)CCCC1 [2-E04, N-{1-[4-(trifluoromethyl)phenyl]cyclopentyl}prop-2-enamide] | 82.6%
16 | C=CC(=O)NC[C@@H]1C[C@H](F)CN1Cc1ccnn1C [2-E05, N-{[(2S,4S)-4-fluoro-1-[(1-methyl-1H-pyrazol-5-yl)methyl]pyrrolidin-2-yl]methyl}prop-2-enamide] | 78.5%
17 | C=CC(=O)Nc1ccc(S(=O)(=O)N(C)C)c(C)c1 [2-E06, N-[4-(dimethylsulfamoyl)-3-methylphenyl]prop-2-enamide] | 78.7%
18 | C=CC(=O)N(Cc1cc(C)cc2c(C)c(C)[nH]c12)CC1(C)COC1 [2-E07, N-[(3-methyloxetan-3-yl)methyl]-N-[(2,3,5-trimethyl-1H-indol-7-yl)methyl]prop-2-enamide] | 80.6%
19 | C=CC(=O)N1CCC(n2cc(CO)nn2)C1 (centres unmarked) [2-E08, 1-{3-[4-(hydroxymethyl)-1H-1,2,3-triazol-1-yl]pyrrolidin-1-yl}prop-2-en-1-one] | 81.8%
20 | C=CC(=O)N1CCC(c2nc(C3CC3)no2)C1 (centres unmarked) [2-E09, 1-[3-(3-cyclopropyl-1,2,4-oxadiazol-5-yl)pyrrolidin-1-yl]prop-2-en-1-one] | 70%
21 | C=CC(=O)Nc1cc(NC(=O)C2CCC2)ccc1F [2-E10, N-[4-fluoro-3-(prop-2-enamido)phenyl]cyclobutanecarboxamide] | 86.7%
22 | C=CC(=O)NC1CN(S(=O)(=O)c2ccc3c(c2)OCCO3)C1 [2-E11, N-[1-(2,3-dihydro-1,4-benzodioxine-6-sulfonyl)azetidin-3-yl]prop-2-enamide] | 79.7%
23 | C=CC(=O)N1CCC(C(=O)N2CCCC2COC)CC1 (centres unmarked) [2-E12, 1-{4-[2-(methoxymethyl)pyrrolidine-1-carbonyl]piperidin-1-yl}prop-2-en-1-one] | 116%
24 | C=CC(=O)N(Cc1ccc(F)c(C)c1)CC1(O)CCSCC1 [2-E13, N-[(4-fluoro-3-methylphenyl)methyl]-N-[(4-hydroxythian-4-yl)methyl]prop-2-enamide] | 55.6%
25 | C=CC(=O)NCCS(=O)(=O)N1CCOCC1 [2-E14, N-[2-(morpholine-4-sulfonyl)ethyl]prop-2-enamide] | 94.6%

Row | Compound | viability at 48 h, 25 µM
26 | C=CC(=O)NCc1nc(C(C)(C)O)n[nH]1 [2-E15, N-{[3-(2-hydroxypropan-2-yl)-1H-1,2,4-triazol-5-yl]methyl}prop-2-enamide] | 116%
27 | C=CC(=O)Nc1ccc(-n2nc(C)[nH]c2=O)cc1 [2-E16, N-[4-(3-methyl-5-oxo-4,5-dihydro-1H-1,2,4-triazol-1-yl)phenyl]prop-2-enamide] | 101%
28 | C=CC(=O)N1CCCCC(S(C)(=O)=O)C1 (centres unmarked) [2-E17, 1-(3-methanesulfonylazepan-1-yl)prop-2-en-1-one] | 110%
29 | C=CC(=O)N1CCCC(CS(=O)(=O)NC)C1 (centres unmarked) [2-E18, N-methyl-1-[1-(prop-2-enoyl)piperidin-3-yl]methanesulfonamide] | 95%
30 | C=CC(=O)NC1CCC(n2c(C)ccc2C)CC1 (centres unmarked) [2-E19, N-[4-(2,5-dimethyl-1H-pyrrol-1-yl)cyclohexyl]prop-2-enamide] | 71.1%
31 | C=CC(=O)N(C)CC(=O)N1CCCCC1c1nc(C)c(C)s1 (centres unmarked) [2-E20, N-{2-[2-(4,5-dimethyl-1,3-thiazol-2-yl)piperidin-1-yl]-2-oxoethyl}-N-methylprop-2-enamide] | 116%
32 | C=CC(=O)Nc1ccc(C(=O)N2CCC[C@@H]2C(=O)OC)cc1 [2-E21, methyl (2R)-1-[4-(prop-2-enamido)benzoyl]pyrrolidine-2-carboxylate] | 104%
33 | C=CC(=O)NC(CO)c1cccc(OC)c1 (centres unmarked) [2-E22, N-[2-hydroxy-1-(3-methoxyphenyl)ethyl]prop-2-enamide] | 122%
34 | C=CC(=O)NCCn1cc(Cl)c(C(F)(F)F)n1 [2-F03, N-{2-[4-chloro-3-(trifluoromethyl)-1H-pyrazol-1-yl]ethyl}prop-2-enamide] | 81.6%
35 | C=CC(=O)N1CCC(C(=O)N2Cc3ccc([N+](=O)[O-])cc3C2)CC1 [2-F04, 1-[4-(5-nitro-2,3-dihydro-1H-isoindole-2-carbonyl)piperidin-1-yl]prop-2-en-1-one] | 82.7%
36 | C=CC(=O)N1CCC(C(=O)N2CCCC(NC(=O)C(C)(C)C)C2)CC1 (centres unmarked) [2-F05, 2,2-dimethyl-N-{1-[1-(prop-2-enoyl)piperidine-4-carbonyl]piperidin-3-yl}propanamide] | 75.6%
37 | C=CC(=O)NCCC(=O)N1CCN(c2nc(C)cs2)C(C)C1 (centres unmarked) [2-F06, N-{3-[3-methyl-4-(4-methyl-1,3-thiazol-2-yl)piperazin-1-yl]-3-oxopropyl}prop-2-enamide] | 92.9%
38 | C=CC(=O)NC1CCOC(c2cnn(C)c2)C1 (centres unmarked) [2-F07, N-[2-(1-methyl-1H-pyrazol-4-yl)oxan-4-yl]prop-2-enamide] | 73%
39 | C=CC(=O)N(CC)CC(=O)N1CCCC1c1ccc(F)cc1C (centres unmarked) [2-F08, N-ethyl-N-{2-[2-(4-fluoro-2-methylphenyl)pyrrolidin-1-yl]-2-oxoethyl}prop-2-enamide] | 74.7%
40 | C=CC(=O)NC1CC(CC(F)(F)F)C1 (centres unmarked) [2-F09, N-[3-(2,2,2-trifluoroethyl)cyclobutyl]prop-2-enamide] | 65.5%
41 | C=CC(=O)N1CCC(C(=O)N(C)Cc2cc(C(C)(C)C)[nH]n2)CC1 [2-F10, N-[(5-tert-butyl-1H-pyrazol-3-yl)methyl]-N-methyl-1-(prop-2-enoyl)piperidine-4-carboxamide] | 45.6%
42 | C=CC(=O)NCc1cn(C(F)F)c2ccccc12 [2-F11, N-{[1-(difluoromethyl)-1H-indol-3-yl]methyl}prop-2-enamide] | 49%
43 | C=CC(=O)N1CCC(C(=O)N2CCCC(CC(N)=O)CC2)CC1 (centres unmarked) [2-F12, 2-{1-[1-(prop-2-enoyl)piperidine-4-carbonyl]azepan-4-yl}acetamide] | 65.1%
44 | C=CC(=O)NCc1coc(-c2ccc(C)cc2)n1 [2-F13, N-{[2-(4-methylphenyl)-1,3-oxazol-4-yl]methyl}prop-2-enamide] | 48.2%
45 | C=CC(=O)N1CCC(C(=O)N(C)C(C)Cc2ccc(C)cc2)CC1 (centres unmarked) [2-F14, N-methyl-N-[1-(4-methylphenyl)propan-2-yl]-1-(prop-2-enoyl)piperidine-4-carboxamide] | 79.5%
46 | C=CC(=O)NCc1cc(Cl)c2c(c1)OCO2 [2-F15, N-[(7-chloro-1,3-dioxaindan-5-yl)methyl]prop-2-enamide] | 50.9%
47 | C=CC(=O)N(C)CC(=O)N1CCC(CN2CCCCC2=O)CC1 [2-F16, N-methyl-N-(2-oxo-2-{4-[(2-oxopiperidin-1-yl)methyl]piperidin-1-yl}ethyl)prop-2-enamide] | 57%
48 | C=CC(=O)NCC1CNC(=O)c2ccccc21 (centres unmarked) [2-F17, N-[(1-oxo-1,2,3,4-tetrahydroisoquinolin-4-yl)methyl]prop-2-enamide] | 54.8%
49 | C=CC(=O)Nc1ccc(-c2nnnn2C)cc1 [2-F18, N-[4-(1-methyl-1H-1,2,3,4-tetrazol-5-yl)phenyl]prop-2-enamide] | 95.5%
50 | C=CC(=O)NCc1cnc(C)n1-c1ccccc1 [2-F19, N-[(2-methyl-1-phenyl-1H-imidazol-5-yl)methyl]prop-2-enamide] | 49%
